The term Emax denotes the maximal effect, on the per cent scale that the assay sets. In general, EC50 refers to the concentration that produces a half-maximal response.

The assay deals with T1, human mAChR M4 (Homo sapiens, UniProt P08173).
T1 construct: expressed in transfected cells
T1 sequence (P08173 1-479): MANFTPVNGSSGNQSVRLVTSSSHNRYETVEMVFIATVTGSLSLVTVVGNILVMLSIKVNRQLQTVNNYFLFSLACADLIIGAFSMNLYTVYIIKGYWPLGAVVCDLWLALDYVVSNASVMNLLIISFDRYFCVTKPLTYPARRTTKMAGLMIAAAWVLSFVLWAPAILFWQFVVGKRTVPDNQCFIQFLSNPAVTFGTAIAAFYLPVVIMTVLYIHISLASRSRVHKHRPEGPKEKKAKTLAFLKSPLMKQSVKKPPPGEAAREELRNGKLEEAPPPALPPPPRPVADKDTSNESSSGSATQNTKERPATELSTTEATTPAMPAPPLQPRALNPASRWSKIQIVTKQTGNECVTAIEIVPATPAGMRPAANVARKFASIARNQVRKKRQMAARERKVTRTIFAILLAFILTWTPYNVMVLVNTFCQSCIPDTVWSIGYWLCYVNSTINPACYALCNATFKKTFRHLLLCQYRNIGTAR
Nature of the assay: mAChR M4 cell-based functional assay (calcium mobilization, CHO-K1 hM4-Gqi5 cells). Conditions: for Emax at 30 µM: CHO-K1, % ACh maximum at 30 μM, human M4; for EC50: positive allosteric modulator activity, increase in the EC20 acetylcholine response, CHO-K1 hM4-Gqi5 cells, read-out: Human M4 EC50; for Emax: CHO-K1. In short, it runs like this: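 CHO-K1 cells stably expressing human M4 with chimeric Gqi5, loaded with Fluo-4 AM; compounds given as 11-point 1:3 curves and calcium flux read on FDSS at 1 Hz. Acetylcholine EC20 added at 144 s, EC80 at 230 s; agonist, PAM (EC20 potentiation) and antagonist (EC80 inhibition) EC50/Emax from four-parameter fits.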
(In general: A change in cytosolic calcium serves as a functional read-out for many receptors and channels.)

Bounds are passed on as bounds.

Regarding `Cc1c(C#N)nnc(N2CCc3ncc(Nc4ccccc4N(C)C)cc3C2)c1C` [compound 40, 6-[3-[2-(dimethylamino)anilino]-7,8-dihydro-5H-1,6-naphthyridin-6-yl]-4,5-dimethyl-pyridazine-3-carbonitrile], the Emax at 30 µM worked out at 51% and the 50% effective concentration (EC50) was found to be 910 nM.
In the same order, the values of `Cc1c(C#N)nnc(N2CCc3ncc(Nc4ccccc4C#N)cc3C2)c1C` [compound 41, 6-[3-(2-cyanoanilino)-7,8-dihydro-5H-1,6-naphthyridin-6-yl]-4,5-dimethyl-pyridazine-3-carbonitrile] are 46% and 483 nM.
In the same order, the values of `Cc1ccccc1Nc1cnc2c(c1)CN(c1nnc(C#N)c(C)c1C)CC2` [compound 42, 4,5-dimethyl-6-[3-(2-methylanilino)-7,8-dihydro-5H-1,6-naphthyridin-6-yl]pyridazine-3-carbonitrile] are 80% and 483 nM.
As to `Cc1c(C#N)nnc(N2CCc3ncc(Nc4ccccc4C(F)(F)F)cc3C2)c1C` [compound 43, 4,5-dimethyl-6-[3-[2-(trifluoromethyl)anilino]-7,8-dihydro-5H-1,6-naphthyridin-6-yl]pyridazine-3-carbonitrile], the Emax at 30 µM was 71% and the EC50 was determined as 1160 nM.
Taken in the same sequence, the figures for `Cc1c(C#N)nnc(N2CCc3ncc(Nc4ccccc4OC(F)(F)F)cc3C2)c1C` [compound 44, 4,5-dimethyl-6-[3-[2-(trifluoromethoxy)anilino]-7,8-dihydro-5H-1,6-naphthyridin-6-yl]pyridazine-3-carbonitrile] were 40% and 1880 nM.
Turning to `Cc1cc(C#N)cnc1N1CCc2ncccc2C1` [compound 45, 6-(7,8-dihydro-5H-1,6-naphthyridin-6-yl)-5-methyl-pyridine-3-carbonitrile], the maximal effect (Emax) was 97% and the EC50 amounted to 1190 nM.
For `Cc1c(C#N)nnc(N2CCc3ncc(Nc4ccc(Cl)cc4F)cc3C2)c1C` [compound 46, 6-[3-(4-chloro-2-fluoro-anilino)-7,8-dihydro-5H-1,6-naphthyridin-6-yl]-4,5-dimethyl-pyridazine-3-carbonitrile], the Emax at 30 µM turned out to be 34% and the EC50 came out at 970 nM.
Turning to `Cc1c(C#N)nnc(N2CCc3ncc(-c4cccnc4)cc3C2)c1C` [compound 47, 4,5-dimethyl-6-[3-(3-pyridyl)-7,8-dihydro-5H-1,6-naphthyridin-6-yl]pyridazine-3-carbonitrile], the Emax at 30 µM stood at 81% and the EC50 was determined as 136 nM.
Taken in the same sequence, the figures for `Cc1c(C#N)nnc(N2CCc3ncc(-c4ccnnc4)cc3C2)c1C` [compound 48, 4,5-dimethyl-6-(3-pyridazin-4-yl-7,8-dihydro-5H-1,6-naphthyridin-6-yl)pyridazine-3-carbonitrile] were 82% and 1810 nM.
Taken in the same sequence, the figures for `Cc1c(C#N)nnc(N2CCc3ncc(-c4cncnc4)cc3C2)c1C` [compound 49, 4,5-dimethyl-6-(3-pyrimidin-5-yl-7,8-dihydro-5H-1,6-naphthyridin-6-yl)pyridazine-3-carbonitrile] were 60% and 868 nM.
In the same order, the values of `Cc1c(C#N)nnc(N2CCc3ncc(-c4cccnc4C(F)(F)F)cc3C2)c1C` [compound 50, 4,5-dimethyl-6-[3-[2-(trifluoromethyl)-3-pyridyl]-7,8-dihydro-5H-1,6-naphthyridin-6-yl]pyridazine-3-carbonitrile] are 68% and 1790 nM.
In the case of `Cc1c(C#N)nnc(N2CCc3ncc(-c4cnc(Cl)c(F)c4)cc3C2)c1C` [compound 51, 6-[3-(6-chloro-5-fluoro-3-pyridyl)-7,8-dihydro-5H-1,6-naphthyridin-6-yl]-4,5-dimethyl-pyridazine-3-carbonitrile], the Emax at 30 µM worked out at 61% and the EC50 came out at 778 nM.
With `COc1cnc(Cl)c(-c2cnc3c(c2)CN(c2nnc(C#N)c(C)c2C)CC3)c1` [compound 52, 6-[3-(2-chloro-5-methoxy-3-pyridyl)-7,8-dihydro-5H-1,6-naphthyridin-6-yl]-4,5-dimethyl-pyridazine-3-carbonitrile], the Emax at 30 µM is 64% and the EC50 turned out to be 305 nM.
Taken in the same sequence, the figures for `Cc1c(C#N)nnc(N2CCc3ncc(-c4cc(F)cnc4Cl)cc3C2)c1C` [compound 53, 6-[3-(2-chloro-5-fluoro-3-pyridyl)-7,8-dihydro-5H-1,6-naphthyridin-6-yl]-4,5-dimethyl-pyridazine-3-carbonitrile] were 70% and 479 nM.
In the same order, the values of `Cc1c(C#N)nnc(N2CCc3ncc(-c4cccnc4F)cc3C2)c1C` [compound 54, 6-[3-(2-fluoro-3-pyridyl)-7,8-dihydro-5H-1,6-naphthyridin-6-yl]-4,5-dimethyl-pyridazine-3-carbonitrile] are 70% and 391 nM.
In the same order, the values of `Cc1ccncc1-c1cnc2c(c1)CN(c1nnc(C#N)c(C)c1C)CC2` [compound 55, 4,5-dimethyl-6-[3-(4-methyl-3-pyridyl)-7,8-dihydro-5H-1,6-naphthyridin-6-yl]pyridazine-3-carbonitrile] are 76% and 195 nM.
As for `Cc1c(C#N)nnc(N2CCc3ncc(-c4ccc(Cl)nc4)cc3C2)c1C` [compound 56, 6-[3-(6-chloro-3-pyridyl)-7,8-dihydro-5H-1,6-naphthyridin-6-yl]-4,5-dimethyl-pyridazine-3-carbonitrile], the Emax at 30 µM was determined as 53% and the EC50 was found to be 364 nM.
On to `CNC(=O)c1cnc(N2CCc3ncccc3C2)c(C)c1` [compound 57, 6-(7,8-dihydro-5H-1,6-naphthyridin-6-yl)-N,5-dimethyl-pyridine-3-carboxamide], for which the Emax is 63% and the EC50 was no less than 10000 nM.
On to `Cc1cc(C(=O)NC(C)C)cnc1N1CCc2ncccc2C1` [compound 58, 6-(7,8-dihydro-5H-1,6-naphthyridin-6-yl)-N-isopropyl-5-methyl-pyridine-3-carboxamide], for which the Emax at 30 µM is 51% and the EC50 is no less than 10000 nM.
Taken in the same sequence, the figures for `Cc1cc(C(=O)NCc2ccccn2)cnc1N1CCc2ncccc2C1` [compound 59, 6-(7,8-dihydro-5H-1,6-naphthyridin-6-yl)-5-methyl-N-(2-pyridylmethyl)pyridine-3-carboxamide] were 68% and 6910 nM.
In the same order, the values of `Cc1cc(C(=O)NCc2cccnc2)cnc1N1CCc2ncccc2C1` [compound 60, 6-(7,8-dihydro-5H-1,6-naphthyridin-6-yl)-5-methyl-N-(3-pyridylmethyl)pyridine-3-carboxamide] are 61% and 4720 nM.
Taken in the same sequence, the figures for `Cc1cc(C(=O)NCc2ccncc2)cnc1N1CCc2ncccc2C1` [compound 61, 6-(7,8-dihydro-5H-1,6-naphthyridin-6-yl)-5-methyl-N-(4-pyridylmethyl)pyridine-3-carboxamide] were 67% and 1630 nM.
With `Cc1cc(C(=O)NCc2cncs2)cnc1N1CCc2ncccc2C1` [compound 62, 6-(7,8-dihydro-5H-1,6-naphthyridin-6-yl)-5-methyl-N-(thiazol-5-ylmethyl)pyridine-3-carboxamide], the Emax at 30 µM was found to be 78% and the EC50 was 760 nM.

Source of the values: US20250230155A1 (Vanderbilt University, priority 2021, published 2025).
